Test results from patent US20180099931A1 (AbbVie S.à.r.l., priority 2016, published 2018).
Where two headings read alike, the source gives them in different places.

Target: T1, F508delCFTR (Homo sapiens, UniProt P13569, DEL508-508)
T1 construct: expressed in transfected cells; host or cells: CFBE41o- human lung-derived epithelial cells (CFBE4lo-F508delCFTR-HRP), doxycycline-inducible
Test: Cell Surface Expression-Horse Radish Peroxidase (CSE-HRP) Assay;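 on Maximum % activity (with co-corrector): co-corrector and positive control are both the same reference corrector at 2 µM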;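 on Maximum % activity (without co-corrector): percent of the 2 µM on-plate positive control corrector response above DMSO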
Format: cell-based
Conditions: for Emax: read-out: Maximum % activity (without co-corrector)

[1] = CSE-HRP, test compound without co-corrector, read-out: EC50 (without co-corrector)
[2] = CSE-HRP, with co-corrector (2 μM of 3-[(2R,4R)-4-({[1-(2,2-difluoro-1,3-benzodioxol-5-yl)cyclopropyl]carbonyl}amino)-7-methoxy-3,4-dihydro-2H-chromen-2-yl]benzoic acid), read-out: EC50 (with co-corrector)
[3] = CSE-HRP, with co-corrector (2 μM), maximum at any tested concentration, normalized to on-plate positive control
[4] = CSE-HRP, without co-corrector, maximum at any tested concentration, normalized to on-plate positive control
[5] = test compound without co-corrector, maximum at any tested concentration, normalized to on-plate positive control
[6] = test compound without co-corrector, read-out: EC50 (without co-corrector)
[7] = with co-corrector (2 μM of 3-[(2R,4R)-4-({[1-(2,2-difluoro-1,3-benzodioxol-5-yl)cyclopropyl]carbonyl}amino)-7-methoxy-3,4-dihydro-2H-chromen-2-yl]benzoic acid), maximum at any tested concentration, normalized to on-plate positive control
[8] = with co-corrector (2 μM of 3-[(2R,4R)-4-({[1-(2,2-difluoro-1,3-benzodioxol-5-yl)cyclopropyl]carbonyl}amino)-7-methoxy-3,4-dihydro-2H-chromen-2-yl]benzoic acid), read-out: EC50 (with co-corrector)
[9] = with co-corrector (2 μM), maximum at any tested concentration, normalized to on-plate positive control
[10] = without co-corrector, maximum at any tested concentration, normalized to on-plate positive control

T1 sequence (P13569 with tags, fused parts or gaps DEL508-508): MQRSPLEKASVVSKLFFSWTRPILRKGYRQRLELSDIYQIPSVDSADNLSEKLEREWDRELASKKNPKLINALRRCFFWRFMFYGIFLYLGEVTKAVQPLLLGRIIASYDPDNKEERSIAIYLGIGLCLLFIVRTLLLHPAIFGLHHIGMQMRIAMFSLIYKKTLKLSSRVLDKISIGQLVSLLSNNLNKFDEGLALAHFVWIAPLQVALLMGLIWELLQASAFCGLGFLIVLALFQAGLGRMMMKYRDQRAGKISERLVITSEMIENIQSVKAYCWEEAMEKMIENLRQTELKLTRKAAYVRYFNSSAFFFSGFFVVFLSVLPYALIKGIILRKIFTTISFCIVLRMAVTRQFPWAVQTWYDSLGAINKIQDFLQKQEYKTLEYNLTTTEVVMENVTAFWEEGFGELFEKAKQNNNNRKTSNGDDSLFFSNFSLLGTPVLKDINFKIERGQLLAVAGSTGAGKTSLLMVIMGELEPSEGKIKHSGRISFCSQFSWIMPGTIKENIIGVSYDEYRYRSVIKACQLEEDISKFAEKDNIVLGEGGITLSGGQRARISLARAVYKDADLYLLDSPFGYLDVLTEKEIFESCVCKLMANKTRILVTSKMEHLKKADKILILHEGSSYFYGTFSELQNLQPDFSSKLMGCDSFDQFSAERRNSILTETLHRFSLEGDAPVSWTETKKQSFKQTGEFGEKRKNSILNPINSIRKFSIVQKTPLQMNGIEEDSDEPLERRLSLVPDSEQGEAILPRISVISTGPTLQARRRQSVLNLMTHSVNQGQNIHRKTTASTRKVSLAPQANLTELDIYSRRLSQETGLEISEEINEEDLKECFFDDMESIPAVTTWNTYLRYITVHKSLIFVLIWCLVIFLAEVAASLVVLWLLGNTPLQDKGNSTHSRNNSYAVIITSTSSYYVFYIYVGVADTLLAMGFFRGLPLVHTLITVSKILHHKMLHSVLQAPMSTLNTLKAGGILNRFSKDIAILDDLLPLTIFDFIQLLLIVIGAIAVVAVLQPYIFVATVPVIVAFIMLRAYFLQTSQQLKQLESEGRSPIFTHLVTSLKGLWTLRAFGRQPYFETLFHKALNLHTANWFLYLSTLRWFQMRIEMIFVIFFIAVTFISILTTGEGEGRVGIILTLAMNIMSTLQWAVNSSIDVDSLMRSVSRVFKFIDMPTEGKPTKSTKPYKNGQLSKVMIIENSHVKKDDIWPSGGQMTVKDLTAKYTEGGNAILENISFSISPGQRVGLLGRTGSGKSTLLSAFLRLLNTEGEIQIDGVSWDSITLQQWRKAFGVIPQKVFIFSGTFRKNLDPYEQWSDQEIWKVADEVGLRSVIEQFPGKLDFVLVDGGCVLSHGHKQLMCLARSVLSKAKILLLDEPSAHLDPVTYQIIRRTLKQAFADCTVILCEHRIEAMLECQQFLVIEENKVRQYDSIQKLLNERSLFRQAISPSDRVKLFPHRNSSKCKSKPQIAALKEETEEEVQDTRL

SMILES | EC50 [1] [µM] | EC50 [2] [µM] | Maximum % activity (with co-corrector) [3] | Emax [4] [%] | Emax [5] [%] | EC50 [6] [µM] | Maximum % activity (with co-corrector) [7] | EC50 [8] [µM] | further results
COc1ccc(C(C)(C)C)cc1CN[C@H]1[C@H](C(C)(C)C)[C@@H](C(=O)O)N(C(=O)[C@H]2OCC[C@H]2C)[C@H]1c1ccccc1 (relative stereo) [II-269] | 1 to 10 | 1 to 10 | +++ (≥350) | > 200 |  |  |  |  | 
COCCn1ccnc1CN[C@@H]1[C@@H](C(C)(C)C)[C@H](C(=O)O)N(C(=O)C2CCCCC2)[C@@H]1c1ccccc1 (racemic) [III-24] |  |  |  |  | < 100 | > 10 | + (<150) | > 10 | 
COc1nc2ccccc2cc1CN[C@H]1[C@H](C(C)(C)C)[C@@H](C(=O)O)N(C(=O)C2CCOCC2)[C@H]1c1cccnc1N(C)C [II-600] |  |  |  |  | < 100 | 1 to 10 | ++ (≥150 and <350) | 1 to 10 | 
COc1nc(C(C)(C)C)ccc1CN[C@H]1[C@H](C(C)(C)C)[C@@H](C(=O)O)N(C(=O)OC(C)C)[C@H]1c1ccccc1F [II-519] |  |  |  |  | 100 to 200 | 1 to 10 | +++ (≥350) | < 1 | 
COc1ncc(Br)cc1CN[C@H]1[C@H](C(C)(C)OC)[C@@H](C(=O)O)N(C(=O)C2CCCCC2)[C@H]1c1ccccc1 [II-247] | 1 to 10 | < 1 | +++ (≥350) | 100 to 200 |  |  |  |  | 
COc1ccc(C23CC(C2)C3)cc1CN[C@H]1[C@H](C(C)(C)C)[C@@H](C(=O)O)N(C(=O)[C@H]2CCC[C@H](OC)C2)[C@H]1c1ccccc1 [II-516] |  |  |  |  | > 200 | 1 to 10 | +++ (≥350) | < 1 | 
CCn1nc(C)c(C(=O)N2[C@H](C(=O)O)[C@@H](C(C)(C)C)[C@H](NCc3cc(C(C)(C)C)ccc3OC)[C@@H]2c2ccccc2)c1C [II-362] |  |  |  |  | 100 to 200 | 1 to 10 | +++ (≥350) | 1 to 10 | 
COc1ccc(C(C)(C)C)cc1CN[C@H]1[C@H](C(C)(C)C)[C@@H](C(=O)O)N(C(=O)[C@@H]2C[C@H]2c2ccccc2)[C@H]1c1ccccc1 (relative stereo) [II-339] |  |  |  |  | > 200 | 1 to 10 | +++ (≥350) | < 1 | 
COc1ccc(Br)cc1CN[C@H]1[C@H](C(C)(C)C)[C@@H](C(=O)O)N(C(=O)OC(C)C)[C@H]1c1ccccc1 [II-171] | 1 to 10 | 1 to 10 | +++ (≥350) | > 200 |  |  |  |  | 
COc1ccc(C(C)(C)C)cc1CN[C@H]1[C@H](C(C)(C)C)[C@@H](C(=O)O)N(C(=O)[C@@H]2CCC[C@H](O)C2)[C@H]1c1ccccc1 [II-515] |  |  |  |  | 100 to 200 | 1 to 10 | +++ (≥350) | 1 to 10 | 
COc1ncc(C2CCC2)cc1CN[C@H]1[C@H](C(C)(C)C)[C@@H](C(=O)O)N(C(=O)[C@@H]2CCC[C@H](C(F)(F)F)C2)[C@H]1c1ccccc1 (relative stereo) [Example I-259] | 1 to 10 | 1 to 10 | +++ (≥350) | 100 to 200 |  |  |  |  | 
COc1ccc(C(C)(C)C)cc1CN[C@H]1[C@H](C(C)(C)C)[C@@H](C(=O)O)N(C(=O)C2CCCC(C)(C)C2)[C@H]1c1ccccc1 (some centres unmarked) [III-203] |  |  |  |  | > 200 | < 1 |  | < 1 | Maximum % activity (with co-corrector) [9]: +++ (≥350)
COc1ccc(C(C)(C)C)cc1CN[C@H]1[C@H](C(C)(C)C)[C@@H](C(=O)O)N(C(=O)Cc2cc(F)ccc2F)[C@H]1c1ccccc1 [II-202] | < 1 | < 1 | +++ (≥350) | > 200 |  |  |  |  | 
COc1ccc(C(C)(C)C)cc1CN[C@H]1[C@H](C(C)(C)C)[C@@H](C(=O)O)N(C(=O)Oc2ccccc2)[C@H]1c1ccccc1 [Example I-153] |  |  |  |  |  |  |  |  | EC50: < 1 µM; EC50 (EC50 (without co-corrector), test compound without co-corrector): 1 to 10 µM; Emax: > 200%; Maximum % activity (with co-corrector) [9]: +++ (≥350)
COc1ccc(C(C)(C)C)cc1CN[C@H]1[C@H](C(C)(C)C)[C@@H](C(=O)O)N(C(=O)CC2CC(=O)c3ccccc32)[C@H]1c1ccccc1 (some centres unmarked) [II-217] | 1 to 10 | < 1 | +++ (≥350) | > 200 |  |  |  |  | 
COc1ccc(C(C)(C)C)cc1CN[C@H]1[C@H](C(C)(C)C)[C@@H](C(=O)O)N(C(=O)C2CC(F)C2)[C@H]1c1ccccc1 (some centres unmarked) [II-335] |  |  |  |  | > 200 | 1 to 10 | +++ (≥350) | 1 to 10 | 
COc1ccc(C(C)(C)C)cc1CN[C@H]1[C@H](C(C)(C)C)[C@@H](C(=O)O)N(C(=O)C(OC)C(C)C)[C@H]1c1ccccc1 (some centres unmarked) [II-267] | 1 to 10 | 1 to 10 | +++ (≥350) | > 200 |  |  |  |  | 
COc1ccc(C(C)(C)C)cc1CN[C@H]1[C@H](C(C)(C)C)[C@@H](C(=O)O)N(C(=O)C(C)Oc2cccc(C)c2C)[C@H]1c1ccccc1 (some centres unmarked) [II-323] |  |  |  |  | 100 to 200 | 1 to 10 | +++ (≥350) | < 1 | 
CC(C)(C)[C@H]1[C@H](NCC2(c3ccccc3Cl)CCOCC2)[C@H](c2ccccc2)N(C(=O)C2CCCCC2)[C@@H]1C(=O)O [Example I-219] |  |  |  |  |  | 1 to 10 |  | 1 to 10 | Maximum % activity (with co-corrector) [9]: +++ (≥350); Emax [10]: 100 to 200%

Now from value to molecule, other results behind:

EC50 [1] [µM] | EC50 [2] [µM] | Maximum % activity (with co-corrector) [3] | Emax [4] [%] | Emax [5] [%] | EC50 [6] [µM] | Maximum % activity (with co-corrector) [7] | EC50 [8] [µM] | SMILES | further results
1 to 10 | 1 to 10 | +++ (≥350) | 100 to 200 |  |  |  |  | COc1ccc(OC(F)F)cc1CN[C@H]1[C@H](C(C)(C)C)[C@@H](C(=O)O)N(C(=O)C2CCCCC2)[C@H]1c1ccccc1 [II-292] | 
 |  |  |  |  | 1 to 10 |  | 1 to 10 | COc1ccc(C(F)(F)F)cc1CN[C@H]1[C@H](C(C)(C)C)[C@@H](C(=O)O)N(C(=O)[C@@H]2CCC[C@@H](OC)C2)[C@H]1c1ccccc1 [Example I-59] | Maximum % activity (with co-corrector) [9]: +++ (≥350); Emax [10]: > 200%
 |  |  |  | 100 to 200 | < 1 |  | < 1 | COc1ccc(C(F)(F)F)cc1CN[C@H]1[C@H](C(C)(C)C)[C@@H](C(=O)O)N(C(=O)C2CCC(C)(C)C2)[C@H]1c1ccccc1 (some centres unmarked) [III-197] | Maximum % activity (with co-corrector) [9]: +++ (≥350)
 |  |  |  | < 100 | 1 to 10 | ++ (≥150 and <350) | 1 to 10 | COc1cc(C(F)(F)F)ccc1CN[C@H]1[C@H](C(C)(C)C)[C@@H](C(=O)O)N(C(=O)[C@H]2CCCCO2)[C@H]1c1cccnc1N(C)C [II-494] | 
1 to 10 | < 1 | +++ (≥350) | > 200 |  |  |  |  | COc1ncc(C(C)C)cc1CN[C@H]1[C@H](C(C)(C)C)[C@@H](C(=O)O)N(C(=O)C2CCCCC2)[C@H]1c1ccccc1 [II-157] | 
1 to 10 | 1 to 10 | +++ (≥350) | 100 to 200 |  |  |  |  | COc1cc(C(F)(F)F)ccc1CN[C@H]1[C@H](C(C)(C)C)[C@@H](C(=O)O)N(C(=O)C2CCCCC2)[C@H]1c1cccnc1C [II-94] | 
 |  |  |  | 100 to 200 | 1 to 10 | +++ (≥350) | 1 to 10 | COc1ccc(C(F)(F)F)cc1CN[C@H]1[C@H](C(C)(C)C)[C@@H](C(=O)O)N(C(=O)C2CCCCC2)[C@H]1c1cccnc1OC [II-573] | 
 |  |  |  | < 100 | 1 to 10 |  | 1 to 10 | COc1ccc(C(F)(F)F)cc1CN[C@@H]1[C@@H](C(C)(C)C)[C@H](C(=O)O)N(C(=O)C2CCCCC2)[C@H]1c1ccccc1 [III-199] | Maximum % activity (with co-corrector) [9]: ++ (≥150 and <350)
 |  |  |  | 100 to 200 | 1 to 10 | +++ (≥350) | 1 to 10 | COc1ccc(C(F)(F)F)cc1CN[C@H]1[C@H](C(C)(C)OC)[C@@H](C(=O)O)N(C(=O)C2CCCCC2)[C@H]1c1cccnc1OC [II-436] | 
1 to 10 | < 1 | +++ (≥350) | > 200 |  |  |  |  | COc1ccc(-c2ccoc2)cc1CN[C@H]1[C@H](C(C)(C)C)[C@@H](C(=O)O)N(C(=O)C2CCCCC2)[C@H]1c1ccccc1 [II-276] | 
1 to 10 | < 1 | +++ (≥350) | > 200 |  |  |  |  | COc1ccc(OC(F)(F)F)cc1CN[C@H]1[C@H](C(C)(C)C)[C@@H](C(=O)O)N(C(=O)C2CCCCC2)[C@H]1c1ccccc1 [II-190] | 
 |  |  |  | < 100 | 1 to 10 | ++ (≥150 and <350) | 1 to 10 | COc1ccccc1[C@@H]1[C@H](NCc2cccc3c2OC(F)(F)O3)[C@@H](C(C)(C)C)[C@H](C(=O)O)N1C(=O)C1CCCCC1 (racemic) [III-45] | 
1 to 10 | < 1 | +++ (≥350) | 100 to 200 |  |  |  |  | COc1ncc(C2CCC2)cc1CN[C@H]1[C@H](C(C)(C)C)[C@@H](C(=O)O)N(C(=O)[C@@H]2CCCO2)[C@H]1c1ccccc1C(F)(F)F [Example I-286] | 
